Experimental data published in US10570122B2, “Compounds with anti-tumoral activity” (AB Science, priority 2015, dated 2020).

Key:
[1] = system: HL60; assay: CellTiter-Blue cell-based survival/proliferation assay, HL60; settings: Homo sapiens, HL-60, Leukemia cell line HL60, 48 h, read-out: Anti-tumoral activity (measured IC50) HL60
In short: (§1)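 Tenfold compound dilutions (0–10 μM) were added to 1·10^4 cells/well. Plates incubated 48 h at 37 °C. CellTiter-Blue reduction (4 h, 37 °C) was read as fluorescence at 590 nm, background-corrected with a cell-free blank.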

[2] = system: HUT78; assay: CellTiter-Blue cell-based survival/proliferation assay, HUT78; settings: Homo sapiens, Lymphoma cell line HUT78, 48 h, read-out: Anti-tumoral activity (measured IC50) HUT78
In short: as §1

[3] = system: KARPAS299; assay: CellTiter-Blue cell-based survival/proliferation assay, KARPAS299; settings: Homo sapiens, KARPAS-299, Lymphoma cell line KARPAS299, 48 h, read-out: Anti-tumoral activity (measured IC50) KARPAS299
In short: as §1

[4] = system: REC1; assay: CellTiter-Blue cell-based survival/proliferation assay, REC1; settings: Homo sapiens, Lymphoma cell line REC1, 48 h, read-out: Anti-tumoral activity (measured IC50) REC1
In short: as §1

[5] = system: OPM2; assay: CellTiter-Blue cell-based survival/proliferation assay, OPM2; settings: Homo sapiens, OPM-2, Myeloma cell line OPM2, 48 h, read-out: Anti-tumoral activity (measured IC50) OPM2
In short: as §1

[6] = system: A498; assay: CellTiter-Blue cell-based survival/proliferation assay, A498; settings: Homo sapiens; A498 kidney tumor cell line, 48 h
In short: as §1

[7] = system: A549; assay: CellTiter-Blue cell-based survival/proliferation assay, A549; settings: Homo sapiens; A549 lung tumor cell line, 48 h
In short: as §1

[8] = system: ACHN; assay: CellTiter-Blue cell-based survival/proliferation assay, ACHN; settings: Homo sapiens; ACHN kidney tumor cell line, 48 h
In short: as §1

[9] = system: AGS; assay: CellTiter-Blue cell-based survival/proliferation assay, AGS; settings: Homo sapiens; AGS stomach tumor cell line, 48 h
In short: as §1

[10] = system: BT20; assay: CellTiter-Blue cell-based survival/proliferation assay, BT20; settings: Homo sapiens, BT-20; BT20 breast tumor cell line, 48 h
In short: as §1

[11] = system: BXPC3; assay: CellTiter-Blue cell-based survival/proliferation assay, BXPC3; settings: Homo sapiens, BXPC-3; BXPC3 pancreas tumor cell line, 48 h
In short: as §1

[12] = system: CALU6; assay: CellTiter-Blue cell-based survival/proliferation assay, CALU6; settings: Homo sapiens, Calu-6; CALU6 lung tumor cell line, 48 h
In short: as §1

[13] = system: CLS354; assay: CellTiter-Blue cell-based survival/proliferation assay, CLS354; settings: Homo sapiens, CLS-354; CLS354_4 head & neck tumor cell line, 48 h
In short: as §1

[14] = system: DLD1; assay: CellTiter-Blue cell-based survival/proliferation assay, DLD1; settings: Homo sapiens, DLD-1; DLD_1 colorectal tumor cell line, 48 h
In short: as §1

[15] = system: DU145; assay: CellTiter-Blue cell-based survival/proliferation assay, DU145; settings: Homo sapiens, DU-145; DU145 prostate tumor cell line, 48 h
In short: as §1

[16] = system: H1299; assay: CellTiter-Blue cell-based survival/proliferation assay, H1299; settings: Homo sapiens, NCI-H1299; H1299 lung tumor cell line, 48 h
In short: as §1

[17] = system: HCT116; assay: CellTiter-Blue cell-based survival/proliferation assay, HCT116; settings: Homo sapiens, HCT-116; HCT116 colorectal tumor cell line, 48 h
In short: as §1

[18] = system: HEP2; assay: CellTiter-Blue cell-based survival/proliferation assay, HEP2; settings: Homo sapiens, HEp-2; HEP2 head & neck tumor cell line, 48 h
In short: as §1

[19] = system: HEPG2; assay: CellTiter-Blue cell-based survival/proliferation assay, HEPG2; settings: Homo sapiens; HEPG2 liver tumor cell line, 48 h
In short: as §1

[20] = system: HGC27; assay: CellTiter-Blue cell-based survival/proliferation assay, HGC27; settings: Homo sapiens, HGC-27; HGC27 stomach tumor cell line, 48 h
In short: as §1

[21] = system: MDAMB231; assay: CellTiter-Blue cell-based survival/proliferation assay, MDAMB231; settings: Homo sapiens, MDA-MB-231; MDAMB231 breast tumor cell line, 48 h
In short: as §1

[22] = system: MESSA; assay: CellTiter-Blue cell-based survival/proliferation assay, MESSA; settings: Homo sapiens, MES-SA; MESSA ovary tumor cell line, 48 h
In short: as §1

[23] = system: PANC1; assay: CellTiter-Blue cell-based survival/proliferation assay, PANC1; settings: Homo sapiens, PANC-1; PANC_1 pancreas tumor cell line, 48 h
In short: as §1

[24] = system: PC3; assay: CellTiter-Blue cell-based survival/proliferation assay, PC3; settings: Homo sapiens, PC-3; PC3 prostate tumor cell line, 48 h
In short: as §1

[25] = system: PLCPRF5; assay: CellTiter-Blue cell-based survival/proliferation assay, PLCPRF5; settings: Homo sapiens, PLC-PRF-5; PLC_PRF5 liver tumor cell line, 48 h
In short: as §1

[26] = system: SW579; assay: CellTiter-Blue cell-based survival/proliferation assay, SW579; settings: Homo sapiens; SW579 head & neck tumor cell line, 48 h
In short: as §1

[27] = system: TOV112D; assay: CellTiter-Blue cell-based survival/proliferation assay, TOV112D; settings: Homo sapiens; TOV112D ovary tumor cell line, 48 h
In short: as §1

[28] = system: panel of about 34 human tumor cell lines; assay: Cell-based proliferation screening on panel of tumor cell lines; settings: solid tumor cell line, cell line unknown, 48 h, read-out: IC50, solid tumor cell line of column 6 (last section of Table 3)
In short: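 CellTiter-Blue survival assay with 1·10^4 cells/well, each line treated 48 h at 37° C with 1/10 serial dilutions from 0 to 10 μM. Resorufin formed during a 4 h reagent incubation is read by fluorescence at 590 nm. A cell-free blank serves as background.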

| SMILES | IC50 [1] [nM] | IC50 [2] [nM] | IC50 [3] [nM] | IC50 [4] [nM] | IC50 [5] [nM] | IC50 [6] [nM] | IC50 [7] [nM] | IC50 [8] [nM] | IC50 [9] [nM] | IC50 [10] [nM] | IC50 [11] [nM] | IC50 [12] [nM] | IC50 [13] [nM] | IC50 [14] [nM] | IC50 [15] [nM] | IC50 [16] [nM] | IC50 [17] [nM] | IC50 [18] [nM] | IC50 [19] [nM] | IC50 [20] [nM] | also measured |
| --- | --- | --- | --- | --- | --- | --- | --- | --- | --- | --- | --- | --- | --- | --- | --- | --- | --- | --- | --- | --- | --- |
| CCOCc1ccc(C)c(Nc2ncc(-c3ccc(N4CCN(CCN)C4=O)cc3)o2)c1 [Example 045, 1-(2-Amino-ethyl)-3-{4-[2-(5-ethoxymethyl-(2-methyl-phenylamino))-oxazol-5-yl]-phenyl}-imidazolidin-2-one] | > 1000 | > 1000 | > 1000 | > 1000 | > 1000 | > 1000 | > 1000 | > 1000 | > 1000 | > 1000 | > 1000 | > 1000 | > 1000 | > 1000 | > 1000 | > 1000 | > 1000 | > 1000 | > 1000 | > 1000 | IC50 [21]: > 1000 nM; IC50 [22]: > 1000 nM; IC50 [23]: > 1000 nM; IC50 [24]: > 1000 nM; IC50 [25]: > 1000 nM; IC50 [26]: > 1000 nM; IC50 [27]: > 1000 nM; IC50 [28]: > 1000 nM |
| CCOCc1ccc(C)c(Nc2ncc(-c3ccc(N4CCN(CCNC(C)=O)C4=O)cc3)o2)c1 [Example 046, N-[2-(3-{4-[2-(5-Ethoxymethyl-(2-methyl-phenylamino))-oxazol-5-yl]-phenyl}-2-oxo-imidazolidin-1-yl)-ethyl]-acetamide] | > 1000 | > 1000 | > 1000 | > 1000 | > 1000 | > 1000 | > 1000 | > 1000 | > 1000 | > 1000 | > 1000 | > 1000 | > 1000 | > 1000 | > 1000 | > 1000 | > 1000 | > 1000 | > 1000 | > 1000 | IC50 [21]: > 1000 nM; IC50 [22]: > 1000 nM; IC50 [23]: > 1000 nM; IC50 [24]: > 1000 nM; IC50 [25]: > 1000 nM; IC50 [26]: > 1000 nM; IC50 [27]: > 1000 nM; IC50 [28]: > 1000 nM |
| CCOCc1ccc(C)c(Nc2ncc(-c3ccc(-c4ccccn4)cc3)o2)c1 [Example 048, (5-Ethoxymethyl-2-methyl-phenyl)-[5-(4-pyridin-2-yl-phenyl)-oxazol-2-yl]-amine] | 100 to 500 | 500 to 1000 | 500 to 1000 | 500 to 1000 | 500 to 1000 | > 1000 | > 1000 | > 1000 | > 1000 | > 1000 | > 1000 | > 1000 | 500 to 1000 | > 1000 | > 1000 | > 1000 | > 1000 | > 1000 | > 1000 | > 1000 | IC50 [21]: > 1000 nM; IC50 [22]: > 1000 nM; IC50 [23]: > 1000 nM; IC50 [24]: > 1000 nM; IC50 [25]: > 1000 nM; IC50 [26]: > 1000 nM; IC50 [27]: > 1000 nM; IC50 [28]: 500 to 1000 nM |
| CCOCc1ccc(C)c(Nc2ncc(-c3ccc(-n4ccccc4=O)cc3)o2)c1 [Example 049, 1-{4-[2-(5-Ethoxymethyl-(2-methyl-phenylamino))-oxazol-5-yl]-phenyl}-1H-pyridin-2-one] | > 1000 | > 1000 | > 1000 | > 1000 | > 1000 | > 1000 | > 1000 | > 1000 | > 1000 | > 1000 | > 1000 | > 1000 | > 1000 | > 1000 | > 1000 | > 1000 | > 1000 | > 1000 | > 1000 | > 1000 | IC50 [21]: > 1000 nM; IC50 [22]: > 1000 nM; IC50 [23]: > 1000 nM; IC50 [24]: > 1000 nM; IC50 [25]: > 1000 nM; IC50 [26]: > 1000 nM; IC50 [27]: > 1000 nM; IC50 [28]: > 1000 nM |
